# Measurements as given in US10800792B2, “Inhibitors of Bruton's tyrosine kinase and method of their use” (JANSSEN PHARMACEUTICA NV, priority 2015, dated 2020).
# Molecular target: unphosphorylated-BTK kinase domain (UP-BTK), GST-tagged human BTK (389-659aa) (Homo sapiens (Human), UniProt Q06187)
# Experiment: BTK kinase Lanthascreen binding assay
# Details: Lanthascreen tracer competition, 60 minutes incubation; pIC50 = negative log of the IC50 in molar
# Protocol: BTK Kinase Lanthascreen Binding Assay:
# A BTK kinase lanthascreen binding assay monitors compound binding to unphosphorylated-BTK kinase domain (UP-BTK), by competing with a fluorescent labeled tracer. […] Data were analyzed using Xlfit™ version 5.3 from ID Business Solutions (Guildford), Microsoft Excel add-in. pIC50 refers to the negative log of the IC50 in molar
# unphosphorylated-BTK kinase domain (UP-BTK), GST-tagged human BTK (389-659aa), sequence (Q06187 389-659): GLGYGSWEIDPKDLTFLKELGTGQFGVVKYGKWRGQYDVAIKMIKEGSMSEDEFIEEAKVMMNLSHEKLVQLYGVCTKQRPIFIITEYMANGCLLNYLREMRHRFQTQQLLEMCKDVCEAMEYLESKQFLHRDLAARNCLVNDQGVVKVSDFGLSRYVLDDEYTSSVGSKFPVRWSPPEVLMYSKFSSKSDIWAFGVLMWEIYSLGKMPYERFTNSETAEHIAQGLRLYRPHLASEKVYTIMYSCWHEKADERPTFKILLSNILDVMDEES
row,Structure (SMILES),BTK_I_binding pIC50
1,"C=CC(=O)N1CCC[C@@H](NC(=O)c2sc3nccc4c3c2NC(=O)N4c2cccc(-c3ccccc3)n2)C1 [Example 604, (R)—N-(1-Acryloylpiperidin-3-yl)-4-oxo-5-(6-phenylpyridin-2-yl)-4,5-dihydro-3H-1-thia-3,5,8-triazaacenaphthylene-2-carboxamide]",6.3
2,"Cc1cc(OC2CCCC2)ncc1N1C(=O)Nc2c(C(=O)N[C@@H]3CCNC3)sc3nccc1c23 (single isomer, unassigned) [Example 797, (R)-5-(*S)-(6-(Cyclopentyloxy)-4-methylpyridin-3-yl)-4-oxo-N-(pyrrolidin-3-yl)-4,5-dihydro-3H-1-thia-3,5,8-triazaacenaphthylene-2-carboxamide]",6.3
3,"CN(C)C/C=C/C(=O)N1CC[C@@H](NC(=O)c2sc3nccc4c3c2NC(=O)N4c2ccc(Oc3ccccc3)c(Cl)c2)C1 [Example 703, (R,E)-5-(3-Chloro-4-phenoxyphenyl)-N-(1-(4-(dimethylamino)but-2-enoyl)pyrrolidin-3-yl)-4-oxo-4,5-dihydro-3H-1-thia-3,5,8-triazaacenaphthylene-2-carboxamide]",7.8
4,"C=CC(=O)N1CC[C@@H](NC(=O)c2sc3nccc4c3c2NC(=O)N4c2ccc(Oc3ccccn3)cc2)C1 [Example 881, (R)—N-(1-Acryloylpyrrolidin-3-yl)-4-oxo-5-(4-(pyridin-2-yloxy)phenyl)-4,5-dihydro-3H-1-thia-3,5,8-triazaacenaphthylene-2-carboxamide]",7.1
5,"C=CC(=O)N1CCC[C@@H](NC(=O)c2sc3nccc4c3c2NC(=O)N4c2cnc(OC(C)C)cc2C)C1 (single isomer, unassigned) [Example 789, (R)—N-(1-Acryloylpiperidin-3-yl)-5-(*S)-(6-isopropoxy-4-methylpyridin-3-yl)-4-oxo-4,5-dihydro-3H-1-thia-3,5,8-triazaacenaphthylene-2-carboxamide]",8.1
6,"C=CC(=O)N1CCC[C@H](NC(=O)c2sc3nccc4c3c2NC(=O)N4c2ccc(Oc3ccccc3)cn2)C1 [Example 795, (S)—N-(1-Acryloylpiperidin-3-yl)-4-oxo-5-(5-phenoxypyridin-2-yl)-4,5-dihydro-3H-1-thia-3,5,8-triazaacenaphthylene-2-carboxamide]",6.4

# More lines, now with the values ahead:
row,BTK_I_binding pIC50,Structure (SMILES)
1,6.5,"C=CC(=O)N1CCCC(Nc2sc3nccc4c3c2NC(=O)N4c2ccc(Oc3ccccc3)cc2C)C1 (stereo not shown) [Example 600, 2-((1-Acryloylpiperidin-3-yl)amino)-5-(2-methyl-4-phenoxyphenyl)-3H-1-thia-3,5,8-triazaacenaphthylen-4(5H)-one]"
2,5.8,"CCN1CCCC(C(=O)Nc2sc3nccc4c3c2NC(=O)N4c2ccc(Oc3ccccc3)cc2C)C1 (stereo not shown) [Example 821, 1-Ethyl-N-(5-(2-methyl-4-phenoxyphenyl)-4-oxo-4,5-dihydro-3H-1-thia-3,5,8-triazaacenaphthylen-2-yl)piperidine-3-carboxamide]"

# Same assay, conditions: pIC50 = negative log of the IC50 in molar; 60 minutes incubation, 50 nM Tracer 236
row,Structure (SMILES),BTK_I_binding pIC50
1,"C=CC(=O)N1CCC[C@@H](NC(=O)c2sc3nccc4c3c2NC(=O)N4c2ccc(OC3CC3)cc2C)C1 [Example 51, (R)—N-(1-Acryloylpiperidin-3-yl)-5-(4-cyclopropoxy-2-methylphenyl)-4-oxo-4,5-dihydro-3H-1-thia-3,5,8-triazaacenaphthylene-2-carboxamide]",7.5
2,"Cc1c(N2C(=O)Nc3c(C(=O)N[C@H]4CCCOC4)sc4nccc2c34)ccc(Oc2ccccc2)c1F [Example 61, (S)-5-(3-Fluoro-2-methyl-4-phenoxyphenyl)-4-oxo-N-(tetrahydro-2H-pyran-3-yl)-4,5-dihydro-3H-1-thia-3,5,8-triazaacenaphthylene-2-carboxamide]",7.3
3,"Cc1cc(Oc2c(F)cccc2F)ccc1N1C(=O)Nc2c(C(=O)N[C@@H]3CCCN(C)C3)sc3nccc1c23 [Example 52, (R)-5-(4-(2,6-Difluorophenoxy)-2-methylphenyl)-N-(1-methylpiperidin-3-yl)-4-oxo-4,5-dihydro-3H-1-thia-3,5,8-triazaacenaphthylene-2-carboxamide]",7.0

# Other lines, results leading:
row,BTK_I_binding pIC50,Structure (SMILES)
1,6.5,"Cc1cc(Oc2ccccc2)ccc1N1C(=O)Nc2c(C(=O)N[C@@H]3CCCN(C4CC4)C3)sc3nccc1c23 [Example 213, (R)—N-(1-Cyclopropylpiperidin-3-yl)-5-(2-methyl-4-phenoxyphenyl)-4-oxo-4,5-dihydro-3H-1-thia-3,5,8-triazaacenaphthylene-2-carboxamide]"
2,7.6,"C=CC(=O)N1C[C@@H](O)[C@@H](NC(=O)c2sc3nccc4c3c2NC(=O)N4c2ccc(Oc3ccccc3)cc2C)C1 [Example 58, N-((3S,4R)-1-Acryloyl-4-hydroxypyrrolidin-3-yl)-5-(2-methyl-4-phenoxyphenyl)-4-oxo-4,5-dihydro-3H-1-thia-3,5,8-triazaacenaphthylene-2-carboxamide]"
3,6.7,"CC(C)=C(C#N)C(=O)N1CCC[C@@H](NC(=O)c2sc3nccc4c3c2NC(=O)N4c2ccc(Oc3ccccc3)cc2C)C1 [Example 140, (R)—N-(1-(2-Cyano-3-methylbut-2-enoyl)piperidin-3-yl)-5-(2-methyl-4-phenoxyphenyl)-4-oxo-4,5-dihydro-3H-1-thia-3,5,8-triazaacenaphthylene-2-carboxamide]"
4,6.9,"Cc1cc(Oc2ccccc2)ccc1N1C(=O)Nc2c(C(=O)NC3COCCN(C)C3)sc3nccc1c23 (stereo not shown) [Example 129, N-(4-Methyl-1,4-oxazepan-6-yl)-5-(2-methyl-4-phenoxyphenyl)-4-oxo-4,5-dihydro-3H-1-thia-3,5,8-triazaacenaphthylene-2-carboxamide]"
5,6.8,"CNC(C)(C)/C=C(\C#N)C(=O)N1CCC[C@@H](NC(=O)c2sc3nccc4c3c2NC(=O)N4c2ccc(Oc3ccccc3)cc2C)C1 [Example 238, (R,E)-N-(1-(2-Cyano-4-methyl-4-(methylamino)pent-2-enoyl)piperidin-3-yl)-5-(2-methyl-4-phenoxyphenyl)-4-oxo-4,5-dihydro-3H-1-thia-3,5,8-triazaacenaphthylene-2-carboxamide]"
6,7.1,"Cc1cc(Oc2ccccc2)ccc1N1C(=O)Nc2c(C(=O)NC3CCCCN(C)C3)sc3nccc1c23 (stereo not shown) [Example 206, 5-(2-Methyl-4-phenoxyphenyl)-N-(1-methylazepan-3-yl)-4-oxo-4,5-dihydro-3H-1-thia-3,5,8-triazaacenaphthylene-2-carboxamide]"

# Same assay, conditions: unphosphorylated-BTK kinase domain, 50 nM Tracer 236, 60 minutes; pIC50 = negative log of the IC50 in molar
row,Structure (SMILES),BTK_I_binding pIC50
1,"C=CC(=O)N1CCC[C@@H](NC(=O)c2sc3nccc4c3c2NC(=O)N4c2ccc(C)c(Cl)c2)C1 [Example 584, (R)—N-(1-Acryloylpiperidin-3-yl)-5-(3-chloro-4-methylphenyl)-4-oxo-4,5-dihydro-3H-1-thia-3,5,8-triazaacenaphthylene-2-carboxamide]",6.6
2,"CN(C)C/C=C/C(=O)N1CCC[C@@H](NC(=O)c2sc3nccc4c3c2NC(=O)N4c2ccc(Oc3ccccc3)cc2)C1 [Example 373, (R,E)-N-(1-(4-(Dimethylamino)but-2-enoyl)piperidin-3-yl)-4-oxo-5-(4-phenoxyphenyl)-4,5-dihydro-3H-1-thia-3,5,8-triazaacenaphthylene-2-carboxamide]",7.3
3,"Cc1ccc(-c2cccc(N3C(=O)Nc4c(C(=O)N[C@@H]5CCCNC5)sc5nccc3c45)c2)cc1 [Example 580, (R)-5-(4′-Methyl-[1,1′-biphenyl]-3-yl)-4-oxo-N-(piperidin-3-yl)-4,5-dihydro-3H-1-thia-3,5,8-triazaacenaphthylene-2-carboxamide]",6.9
4,"O=C(N[C@@H]1CCNC1)c1sc2nccc3c2c1NC(=O)N3c1ccc(Oc2ccccc2)c(Cl)c1 [Example 577, (R)-5-(3-Chloro-4-phenoxyphenyl)-4-oxo-N-(pyrrolidin-3-yl)-4,5-dihydro-3H-1-thia-3,5,8-triazaacenaphthylene-2-carboxamide]",7.2

# Results, then the compound that gave them:
row,BTK_I_binding pIC50,Structure (SMILES)
1,7.2,"CCS(=O)(=O)N1CCC[C@@H](NC(=O)c2sc3nccc4c3c2NC(=O)N4c2ccc(Oc3ccccc3)cc2C)C1 (single isomer, unassigned) [Example 539, (R)—N-(1-(Ethylsulfonyl)piperidin-3-yl)-5-(*S)-(2-methyl-4-phenoxyphenyl)-4-oxo-4,5-dihydro-3H-1-thia-3,5,8-triazaacenaphthylene-2-carboxamide]"
2,5.9,"Cc1cc(Oc2ccccc2)ccc1N1C(=O)Nc2c(C(=O)N[C@@H]3CCNC(C)C3)sc3nccc1c23 (single isomer, unassigned) [Example 435, 5-(*R)-(2-Methyl-4-phenoxyphenyl)-N-((4*R)-2-methylpiperidin-4-yl)-4-oxo-4,5-dihydro-3H-1-thia-3,5,8-triazaacenaphthylene-2-carboxamide]"

# Same assay, conditions: unphosphorylated-BTK kinase domain, 60 minutes incubation, 50 nM Tracer 236; pIC50 = negative log of the IC50 in molar
row,Structure (SMILES),BTK_I_binding pIC50
1,"CC(=O)N1CC[C@H](NC(=O)c2sc3nccc4c3c2NC(=O)N4c2ccc(Oc3ccccc3)cc2)C1 [Example 924, (S)—N-(1-Acetylpyrrolidin-3-yl)-4-oxo-5-(4-phenoxyphenyl)-4,5-dihydro-3H-1-thia-3,5,8-triazaacenaphthylene-2-carboxamide]",6.3
2,"Cc1cc(Oc2ccccc2)ccc1N1C(=O)Nc2c(C(=O)N[C@@H]3CCCN(C(=O)CN4CCC4)C3)sc3nccc1c23 [Example 908, (R)—N-(1-(2-(Azetidin-1-yl)acetyl)piperidin-3-yl)-5-(2-methyl-4-phenoxyphenyl)-4-oxo-4,5-dihydro-3H-1-thia-3,5,8-triazaacenaphthylene-2-carboxamide]",6.7
